Experiments:
TNF-α = assay: In vitro measurement of TNF-α production in LPS-stimulated human PBMC (ELISA); assay type: cell-based; details: 100 nM compound, LPS 1 μg/mL, 18 h, NA: Not active
Protocol: Biological Activity In Vitro Measurement of Tumor Necrosis Factor Alpha (TNF-α):
This assay determines the effect of test compounds on the production of TNF-α in human Peripheral Blood Mononuclear Cells (PBMC). Compounds were tested for their ability to inhibit the activity of TNF α in human PBMC. PBMC were isolated from blood (of healthy volunteers) using BD Vacutainer CPT™ (Cell preparation tube, BD Bio Science) and suspended in RPMI (Rosewell park memorial institute) medium (Physiol. Res. 2003, 52, 593-598). The test compounds were pre-incubated with PBMC (0.5 million/incubation well) for 15 minutes at 37° C. and then stimulated with Lipopolysaccharide (Escherichia coli: B4; 1 μg/mL) for 18 h at 37° C. in 5% CO2. The levels of TNF-α in the cell culture medium were estimated using enzyme-linked immunosorbent assay performed in a 96 well format as per the procedure of the manufacturer (Cayman Chemical, Ann Arbor, USA).

[1] = biological target: human PDE4B enzyme (PDE4B2) (Homo sapiens, UniProt Q07343); assay: Phosphodiesterase 4 screening assay (SPA, [3H]-cAMP); assay type: biochemical; details: 100 nM compound; 0.5 μM cAMP
Protocol: Phosphodiesterase 4 Screening Assay:
PDE4 (Phosphodiesterase type IV) enzymes convert cyclic AMP (cAMP) into AMP. The assay is performed to determine the effect of test compounds on the inhibition of purified human PDE4B enzyme.
The assay involves the detection of the Tritiated AMP (product) using SPA beads known as yittrium silicate. The linear AMP bind preferentially to SPA yittrium silicate beads compared to cyclic nucleotides in the presence of zinc sulphate. The binding of the radiolabelled product to the bead brings the isotope into close proximity to allow radiation from the tritium to excite the scintillant within the bead to emit light. The unbound radiolabel is not close enough to allow this energy transfer and the light emitted due to the binding of tritiated AMP is detected as cpm (counts per minute).
PDE Activity (SPA Based Assay Protocol):
PDE4B activity was inhibited by the compounds according to the invention in a modified SPA (scintillation proximity assay) test, supplied by GE Healthcare Life Sciences (see procedural instructions “Phosphodiesterase [^3H]-cAMP SPA enzyme assay, code TRKQ 7090”), carried out in 96-well microtitre plates. The test volume is 100 μL and contains 50 mM Tris buffer (pH 7.4), 8.3 mM Mg^2+, in the presence of inhibitor or test compound, and containing PDE4B2 enzyme (sufficient to ensure that 10-20% of the cAMP is converted, under the said experimental conditions). […] After a pre-incubation of 5 minutes at 37° C., the reaction is started by adding the substrate (cAMP; 0.5 μM cAMP, including about 50,000 cpm of [^3H]-cAMP) and the assays are incubated for a further 10 minutes; after that, they are stopped by adding SPA beads containing 18 mM ZnSO4 (50 μl). After the beads have been sedimented (>30 minutes), the microtitre plates are analyzed in a Microplate luminescence detection device (TopCount* NXT; PerkinElmer Life Sciences). Where, the signal in the absence of enzyme is defined as the background. 100% activity was defined as the signal detected in the presence of enzyme and DMSO with the background subtracted. The corresponding IC50 values of the compounds for the inhibition of PDE4B2 activity are determined from the concentration-effect curves by means of non-linear regression fit of the standard 4-parameter/multiple binding sites equation from a eight- to ten-point titration. (Catherine B. et al. Anal. Biochem., 1999, 275(2), pp. 148-155, David M. E. Biochem. Pharmacol., 1999, 57, pp. 965-973)

Sequence of human PDE4B enzyme (PDE4B2) (Q07343 1-564 isoform Q07343-2): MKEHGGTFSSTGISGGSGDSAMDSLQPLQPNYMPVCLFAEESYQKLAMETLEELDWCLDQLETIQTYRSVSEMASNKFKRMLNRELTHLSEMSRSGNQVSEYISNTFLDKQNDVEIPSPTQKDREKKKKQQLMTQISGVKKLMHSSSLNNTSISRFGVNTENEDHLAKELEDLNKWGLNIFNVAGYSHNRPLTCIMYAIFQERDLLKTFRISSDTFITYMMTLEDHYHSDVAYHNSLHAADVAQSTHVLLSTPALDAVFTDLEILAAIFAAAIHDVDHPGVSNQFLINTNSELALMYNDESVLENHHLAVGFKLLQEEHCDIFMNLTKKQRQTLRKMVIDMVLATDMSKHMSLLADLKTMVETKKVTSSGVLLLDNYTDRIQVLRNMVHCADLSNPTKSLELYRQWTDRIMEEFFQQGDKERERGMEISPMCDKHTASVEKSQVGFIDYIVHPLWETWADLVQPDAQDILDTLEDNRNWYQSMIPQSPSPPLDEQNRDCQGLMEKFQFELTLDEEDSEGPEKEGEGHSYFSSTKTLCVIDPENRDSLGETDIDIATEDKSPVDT

Row | inhibition at 0.1 µM [1] | Compound | inhibition at 0.1 µM (TNF-α)
1 | 18.9% | COc1ccc(-c2nc(C(=O)N3CCN(c4ncc(C(=O)O)cn4)CC3)co2)c2c1oc1ccccc12 [Example 66, 2-(4-(2-(4-Methoxydibenzo[b,d]furan-1-yl)oxazole-4-carbonyl)piperazin-1-yl)pyrimidine-5-carboxylic acid] | 
2 | 22.2% | COc1ccc(-c2nc3cc(C(=O)O)ccc3o2)c2c1oc1ccccc12 [Example 72, 2-(4-Methoxydibenzo[b,d]furan-1-yl)-1,3-benzo[d]oxazole-5-carboxylic acid] | 
3 | 54.9% | COc1ccc(-c2nc3ccccc3o2)c2c1oc1ccccc12 [Example 74, 2-(4-Methoxydibenzo[b,d]furan-1-yl)-1,3-benzo[d]oxazole] | 
4 | 18.1% | COc1ccc(-c2nc3cc(C(N)=O)ccc3o2)c2c1oc1ccccc12 [Example 73, 2-(4-Methoxydibenzo[b,d]furan-1-yl)-1,3-benzo[d]oxazole-5-carboxamide] | 
5 | 37.2% | COc1ccc(-c2nc3ncccc3o2)c2c1oc1ccccc12 [Example 75, 2-(4-Methoxydibenzo[b,d]furan-1-yl)[1,3]oxazolo[4,5-b]pyridine] | 
6 | 48.3% | COc1ccc(-c2nc3cc(C(=O)NC4CCCC4)ccc3o2)c2c1oc1ccccc12 [Example 76, N-Cyclopentyl-2-(4-methoxydibenzo[b,d]furan-1-yl)-1,3-benzo[d]oxazole-5-carboxamide] | 
7 | 55.3% | COc1ccc(-c2nc3cc(C(=O)NC4CCC(O)CC4)ccc3o2)c2c1oc1ccccc12 (stereo not shown) [Example 77, N-(4-Hydroxycyclohexyl)-2-(4-methoxydibenzo[b,d]furan-1-yl)-1,3-benzo[d]oxazole-5-carboxamide] | 
8 | 20.3% | COc1ccc(-c2nc(C(=O)N3CCCC3)co2)c2c1oc1ccccc12 [Example 71, [2-(4-Methoxydibenzo[b,d]furan-1-yl)-1,3-oxazol-4-yl](pyrrolidin-1-yl)methanone] | 
9 | 33.3% | CNC(=O)c1coc(-c2ccc(OC)c3oc4ccccc4c23)n1 [Example 69, 2-(4-Methoxydibenzo[b,d]furan-1-yl)-N-methyl-1,3-oxazole-4-carboxamide] | 
10 | 22.8% | COc1ccc(-c2nc(C(N)=O)co2)c2c1oc1ccccc12 [Example 67, 2-(4-Methoxydibenzo[b,d]furan-1-yl)-1,3-oxazole-4-carboxamide] | 
11 | 2.34% | COc1ccc(-c2nc(C(=O)NC3CC3)co2)c2c1oc1ccccc12 [Example 70, N-Cyclopropyl-2-(4-methoxydibenzo[b,d]furan-1-yl)-1,3-oxazole-4-carboxamide] | 

Continued, molecule first:

Row | Compound | inhibition at 0.1 µM [1] | inhibition at 0.1 µM (TNF-α)
12 | CCNC(=O)c1nc(-c2ccc(OC)c3oc4ccccc4c23)sc1C [Example 29, N-Ethyl-2-(4-methoxydibenzo[b,d]furan-1-yl]-5-methyl-1,3-thiazole-4-carboxamide] |  | 18.4%
13 | COc1ccc(-c2nc(C(=O)N3CCN(c4ncccn4)CC3)cs2)c2c1oc1ccccc12 [Example 18, (2-(4-Methoxydibenzo[b,d]furan-1-yl)-1,3-thiazol-4-yl)(4-(pyrimidin-2-yl)piperazin-1-yl)methanone] | 25.8% | 
14 | CC(=O)Nc1ccc2oc3c(OC(F)F)ccc(-c4nc(C(=O)O)cs4)c3c2c1 [Example 36, 2-[8-(Acetylamino)-4-(difluoromethoxy)dibenzo[b,d]furan-1-yl]-1,3-thiazole-4-carboxylic acid] |  | 15.5%
15 | CS(=O)(=O)Nc1ccc2oc3c(OC(F)F)ccc(-c4nc(C(=O)NC5CCC(O)CC5)cs4)c3c2c1 (stereo not shown) [Example 46, 2-(4-(Difluoromethoxy)-(methylsulfonamido)dibenzo[b,d]furan-1-yl)-N-(4-hydroxycyclohexyl)-1,3-thiazole-4-carboxamide] |  | 78.6%
16 | CONC(=O)c1nc(-c2ccc(OC(F)F)c3oc4ccc(NS(C)(=O)=O)cc4c23)sc1C [Example 37, 2-(4-(Difluoromethoxy)-8-(methylsulfonamido)dibenzo[b,d]furan-1-yl)-N-methoxy-5-methyl-1,3-thiazole-4-carboxamide] |  | 35.4%
17 | COc1ccc(-c2nc(C)c(C(=O)O)s2)c2c1oc1ccccc12 [Example 23, 2-(4-Methoxydibenzo[b,d]furan-1-yl)-4-methyl-1,3-thiazole-5-carboxylic acid] | 16.8% | 
18 | COc1ccc(-c2nc(C(=O)NC3CCC(O)CC3)c(C)o2)c2c1oc1ccccc12 (stereo not shown) [Example 60, N-(4-Hydroxycyclohexyl)-2-(4-methoxydibenzo[b,d]furan-1-yl)-5-methyl-1,3-oxazole-4-Carboxamide] | 47.3% | 
19 | COc1ccc(-c2nc(C(=O)Nc3ccccc3)cs2)c2c1oc1ccccc12 [Example 17, 2-(4-Methoxydibenzo[b,d]furan-1-yl)-N-phenyl-1,3-thiazole-4-carboxamide] | 2.42% | 
20 | COc1ccc(-c2nc(C(=O)Nc3ccc(Cl)cc3)cs2)c2c1oc1ccccc12 [Example 20, N-(4-Chlorophenyl)-2-(4-methoxydibenzo[b,d]furan-1-yl)-1,3-thiazole-4-carboxamide] | 2.98% | 
21 | CCOC(=O)c1csc(-c2ccc(OC)c3oc4ccccc4c23)n1 [Example 15, Ethyl 2-(4-methoxydibenzo[b,d]furan-1-yl)-1,3-thiazole-4-carboxylate] | 17.6% | 
22 | COc1ccc(-c2nc(CC(=O)Nc3c(Cl)cncc3Cl)cs2)c2c1oc1ccccc12 [Example 12, N-(3,5-Dichloropyridin-4-yl)-2-(2-(4-methoxydibenzo[b,d]furan-1-yl)-1,3-thiazol-4-yl)acetamide] | 8.92% | 
23 | COc1ccc(-c2nc(C(=O)O)cs2)c2c1oc1ccccc12 [Example 16, 2-(4-Methoxydibenzo[b,d]furan-1-yl)-1,3-thiazole-4-carboxylic acid] | 36% | 
24 | COc1ccc(-c2nc(-c3ccc(C#N)cc3)cs2)c2c1oc1ccccc12 [Example 8, 4-(2-(4-Methoxydibenzo[b,d]furan-1-yl)-1,3-thiazol-4-yl)benzonitrile] | 5.16% | 
25 | CCOC(=O)c1sc(-c2ccc(OC)c3oc4ccccc4c23)nc1C [Example 21, Ethyl 2-(4-methoxydibenzo[b,d]furan-1-yl)-4-methyl-1,3-thiazole-5-carboxylate] | 9.1% | 
26 | COc1ccc(-c2nc(C(N)=O)c(C)o2)c2c1oc1ccccc12 [Example 58, 2-(4-Methoxydibenzo[b,d]furan-1-yl)-5-methyl-1,3-oxazole-4-carboxamide] | 64.1% | 
27 | COc1ccc(-c2nc(C(=O)NC(C)C)c(C)o2)c2c1oc1ccccc12 [Example 61, 2-(4-Methoxydibenzo[b,d]furan-1-yl)-5-methyl-N-(propan-2-yl)-1,3-oxazole-4-carboxamide] | 44.3% | 
28 | COc1ccc(-c2csc(-c3ccc(OC)c4oc5ccccc5c34)n2)cc1 [Example 22, 2-(4-Methoxydibenzo[b,d]furan-1-yl)-4-(4-methoxyphenyl)-1,3-thiazole] | 19.4% | 
29 | CCNC(=O)c1nc(-c2ccc(OC)c3oc4ccccc4c23)oc1C [Example 57, N-Ethyl 2-(4-methoxydibenzo[b,d]furan-1-yl)-5-methyl-1,3-oxazole-4-carboxamide] | 32.5% | 
30 | COc1ccc(-c2nc(C(=O)N3CCN(c4ccccn4)CC3)cs2)c2c1oc1ccccc12 [Example 19, (2-(4-Methoxydibenzo[b,d]furan-1-yl)-1,3-thiazol-4-yl)(4-(pyridin-2-yl)piperazin-1-yl)methanone] | 21.9% | 
31 | CS(=O)(=O)Nc1ccc2oc3c(OC(F)F)ccc(-c4nc(C(=O)O)co4)c3c2c1 [Example 49, 2-(4-(Difluoromethoxy)-8-(methylsulfonamido)dibenzo[b,d]furan-1-yl)-1,3-oxazole-4-carboxylic acid] | 59.5% | 
